Measured values from US11000033B2, “Ketone or oxime compound, and herbicide” (NISSAN CHEMICAL CORPORATION, priority 2014, dated 2021).

Columns and labels:
Assay type in all cases: in vivo
[1] = system: Leptochloa chinensis; experiment: Test Example 3: herbicidal effect by foliage application, Wagner pot (symbol D); settings: application herbicide amount 320 g/ha; for D (Leptochloa chinensis) herbicidal effect grade: Table 24
How it was run: (§1)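 Steps: fill pot with alluvial soil; add water to 0.1–0.5 cm depth; sow weed and rice seed; grow 14 days at 25–30 °C; spray diluted emulsion over the leaves; rate effect after 3 weeks.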

[2] = system: Abutilon theophrasti; experiment: Test Example 4: herbicidal effect by soil treatment (symbol M); settings: application herbicide amount 320 g/ha
How it was run: (§2)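 Seeds were sown in sterilized diluvial soil, covered with about 1.5 cm of soil, and the soil surface was sprayed with a water-diluted emulsion of the compound at a predetermined rate. Plants grew in a greenhouse at 25° C. to 30° C.; effects were scored visually 3 weeks after application.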

[3] = system: Galium spurium; experiment: Test Example 5: herbicidal effect by foliage application, plastic box (symbol Q); settings: 320 g/ha, 3 weeks after application
How it was run: (§3)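 Sowing in sterilized diluvial soil, 14 days' greenhouse growth at 25° C. to 30° C., then uniform small-sprayer foliar application of aqueous emulsion dilution; plants scored three weeks afterwards.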

[4] = system: Lolium multiflorum Lam.; experiment: Test Example 5: herbicidal effect by foliage application, plastic box (symbol K); settings: 320 g/ha, 3 weeks after application
How it was run: as §3

[5] = system: Echinochloa oryzacola Vasing.; experiment: Test Example 2: herbicidal activity, application during weed generation in submerged conditions (symbol A); settings: Table 23; application herbicide amount 320 g/ha; grade 0-5 by criteria of Test Example 1
How it was run: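 Submerged alluvial soil (4 cm) sown with mixed seed; greenhouse 25–30° C. 1–2 leaf: diluted emulsion onto water surface, preset dose. Visual score, 3 wk.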

[6] = system: soybean; experiment: Test Example 4: effect on crop by soil treatment (symbol d); settings: application herbicide amount 320 g/ha
How it was run: (§4)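 Crop seeds, among them rice, wheat, beet and rapeseed, were sown in sterilized diluvial soil and covered with about 1.5 cm of soil. Boxes were kept in a greenhouse at 25° C. to 30° C. for plant growth.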

[7] = system: corn; experiment: Test Example 4: effect on crop by soil treatment (symbol c); settings: application herbicide amount 320 g/ha
How it was run: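 The test used sterilized diluvial soil. Seed was set down in spots and overlaid with about 1.5 cm of soil before growth in a greenhouse kept at 25° C. to 30° C.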

[8] = system: Amaranthus retroflexus; experiment: Test Example 4: herbicidal effect by soil treatment (symbol N); settings: application herbicide amount 320 g/ha
How it was run: as §2

[9] = system: Digitaria ciliaris; experiment: Test Example 4: herbicidal effect by soil treatment (symbol F); settings: application herbicide amount 320 g/ha
How it was run: as §2

[10] = system: Cyperus difformis; experiment: Test Example 3: herbicidal effect by foliage application, Wagner pot (symbol E); settings: application herbicide amount 320 g/ha; for E herbicidal effect grade: Table 24
How it was run: as §1

[11] = system: Monochoria vaginalis; experiment: Test Example 1: herbicidal activity, application before weed generation in submerged conditions (symbol C); settings: application herbicide amount 320 g/ha
How it was run: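 Flooded alluvial soil (4 cm water) was mixed-sown with the three weed species, and 2.5-leaf rice seedlings were transplanted. On sowing day, a water-diluted emulsion at a predetermined rate was applied to the water surface. After 3 weeks in a 25–30 °C greenhouse, effect was scored 0–5.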

[12] = system: beet; experiment: Test Example 4: effect on crop by soil treatment (symbol f); settings: application herbicide amount 320 g/ha
How it was run: as §4

SMILES | herbicidal effect on D (Leptochloa chinensis), grade 0-5 [1] | M (Abutilon theophrasti) herbicidal effect grade [2] | Q: Galium spurium, herbicidal effect (criteria 0-5) [3] | K: Lolium multiflorum Lam., herbicidal effect (criteria 0-5) [4] | Herbicidal effect grade, A: Echinochloa oryzacola Vasing. [5] | d (soybean) effect on crop grade [6] | c (corn) effect on crop grade [7] | N (Amaranthus retroflexus) herbicidal effect grade [8] | F (Digitaria ciliaris) herbicidal effect grade [9] | herbicidal effect on E, grade 0-5 [10] | D (Leptochloa chinensis) herbicidal effect grade [1] | Herbicidal effect grade, C: Monochoria vaginalis [11] | Herbicidal effect grade, M: Abutilon theophrasti [2] | K: Lolium multiflorum Lam., herbicidal effect grade [4] | Effect on crop grade, d: soybean [6] | Effect on crop grade, c: corn [7] | Herbicidal effect grade, N: Amaranthus retroflexus [8] | Herbicidal effect grade, F: Digitaria ciliaris [9] | Effect on crop grade, f: beet [12] | E herbicidal effect grade [10]
CON=C(C)CC1CC(OC(=O)COc2ccc(Cl)cc2Cl)=C(c2c(C)cc(C)cc2C)C1=O (centres unmarked) [1-075] | 5 (Herbicidal ratio of 90% or more (almost completely withered)) | 5 (Herbicidal ratio of 90% or more (almost completely withered)) | 0 (Herbicidal ratio of 5% or lower (almost no effect)) | 5 (Herbicidal ratio of 90% or more (almost completely withered)) | 5 (Herbicidal ratio of 90% or more (almost completely withered)) | 0 (Herbicidal ratio of 5% or lower (almost no effect)) | 5 (Herbicidal ratio of 90% or more (almost completely withered)) | 5 (Herbicidal ratio of 90% or more (almost completely withered)) | 5 (Herbicidal ratio of 90% or more (almost completely withered)) | 5 (Herbicidal ratio of 90% or more (almost completely withered)) | – | – | – | – | – | – | – | – | – | –
CON=C(CC1CC(O)=C(c2c(C)cc(Br)cc2C)C1=O)C1CC1 (centres unmarked) [9-002] | – | – | – | – | 5 (Herbicidal ratio of 90% or more (almost completely withered)) | – | – | – | – | – | 5 (Herbicidal ratio of 90% or more (almost completely withered)) | 0 (Herbicidal ratio of 5% or lower (almost no effect)) | 0 (Herbicidal ratio of 5% or lower (almost no effect)) | 5 (Herbicidal ratio of 90% or more (almost completely withered)) | 0 (Herbicidal ratio of 5% or lower (almost no effect)) | 3 (Herbicidal ratio of 40% or higher and lower than 70%) | 0 (Herbicidal ratio of 5% or lower (almost no effect)) | 5 (Herbicidal ratio of 90% or more (almost completely withered)) | 0 (Herbicidal ratio of 5% or lower (almost no effect)) | 5 (Herbicidal ratio of 90% or more (almost completely withered))
CON=C(CC1CC(O)=C(c2c(C)cc(-n3cc(Cl)cn3)cc2C)C1=O)C(C)C (centres unmarked) [9-004] | – | – | – | – | 5 (Herbicidal ratio of 90% or more (almost completely withered)) | – | – | – | – | – | 5 (Herbicidal ratio of 90% or more (almost completely withered)) | 0 (Herbicidal ratio of 5% or lower (almost no effect)) | 0 (Herbicidal ratio of 5% or lower (almost no effect)) | 5 (Herbicidal ratio of 90% or more (almost completely withered)) | 0 (Herbicidal ratio of 5% or lower (almost no effect)) | 0 (Herbicidal ratio of 5% or lower (almost no effect)) | 0 (Herbicidal ratio of 5% or lower (almost no effect)) | 5 (Herbicidal ratio of 90% or more (almost completely withered)) | 0 (Herbicidal ratio of 5% or lower (almost no effect)) | 5 (Herbicidal ratio of 90% or more (almost completely withered))
